Assay results: publication PMC10966741, “Consensus Pharmacophore Strategy For Identifying Novel SARS-Cov-2 M^pro Inhibitors from Large Chemical Libraries” (Journal of Chemical Information and Modeling, 2024)

The compounds below were run against SARS-CoV-2 M^pro (main protease; 3CLpro) (Severe acute respiratory syndrome coronavirus 2, UniProt P0DTC1) (assay: continuous FRET cleavage assay).
Format: biochemical

| Structure (SMILES) | IC50 |
| --- | --- |
| Cc1ccc(NC(=O)C2CC(=O)Nc3cc(F)ccc32)c(OCC(F)(F)F)c1 (stereo not drawn) [compound 1, 7-fluoro-N-[4-methyl-2-(2,2,2-trifluoroethoxy)phenyl]-2-oxo-1,2,3,4-tetrahydroquinoline-4-carboxamide] | 86.6 µM |
| CCOc1cc(C)ccc1NC(=O)C1CC(=O)Nc2ccccc21 (stereo not drawn) [compound 4, N-(2-ethoxy-4-methylphenyl)-2-oxo-1,2,3,4-tetrahydroquinoline-4-carboxamide] | 32.6 µM |
| O=C(Nc1ccccc1-c1nc2ccccc2[nH]1)c1cc(C2CC2)[nH]n1 [compound 5, N-[2-(1H-1,3-benzodiazol-2-yl)phenyl]-5-cyclopropyl-1H-pyrazole-3-carboxamide] | 70.5 µM |
